Earlier results in US20060100282A1, “Novel diaminopropane-based metal chelators as antiviral agents” (Bioflexis, LLC, priority 2004, published 2006).

What was measured:
HIV-1 integrase (IN) [1] = biological target: T1, HIV-1 integrase (IN) (Human immunodeficiency virus type 1 group M subtype B, UniProt P12497); details: result in words
T1 construct: HIV-1 recombinant IN (HIV-1NL 4-3 Integrase, NIH AIDS Reagent program Catalog No: 2959); purchased NIH AIDS Reagent program 2959

HIV-1 integrase (IN) [2] = biological target: T1, HIV-1 integrase (IN); details: result in words; remark: listed apart in the source

For `O=C(O)C(=O)CC(=O)c1cc(OCc2ccccc2)cc(OCc2ccccc2)c1` [Inhibitor 6], the “inhibition of strand transfer reaction” value (HIV-1 integrase (IN) [1]) is listed as “inhibit strand transfer reaction” and the “inhibition of 3′ processing” value (HIV-1 integrase (IN) [2]) is listed as “do not inhibit 3′ processing”.

In the case of `O=C(O)C(=O)CC(=O)c1cccn1Cc1ccc(F)cc1` [Inhibitor 8], the “inhibition of strand transfer reaction” value (HIV-1 integrase (IN) [1]) is given as “inhibit strand transfer reaction” and the “inhibition of 3′ processing” value (HIV-1 integrase (IN) [2]) is given as “do not inhibit 3′ processing”.
